In ChEMBL document CHEMBL4190166 (Medchemcomm, 2016):
Blank lines part the entries; values can stand above or below the compound they belong to.

Key:
[1] = target: T1, Protein cereblon/Bromodomain-containing protein 4 (Homo sapiens, UniProt O60885+Q96SW2); experiment: Proteolysis targeting chimera activity in human BL cells assessed as induction of cereblon-mediated delivery of BRD4 for protein degradation by proteasome by immuno blot analysis; type: cell-based
[2] = target: Protein cereblon/Tyrosine-protein kinase ABL1 (Homo sapiens) (UniProt P00519+Q96SW2); experiment: Proteolysis targeting chimera activity in human K562 cells assessed as induction of cereblon-mediated delivery of ABL for protein degradation by proteasome at 1 uM after 24 hrs by immuno blot analysis relative to control; type: cell-based
[3] = target: Protein cereblon/Tyrosine-protein kinase ABL1/Breakpoint cluster region protein (Homo sapiens) (UniProt P00519+P11274+Q96SW2); experiment: Proteolysis targeting chimera activity in human K562 cells assessed as induction of cereblon-mediated delivery of BCR-ABL for protein degradation by proteasome at 1 uM after 24 hrs by immuno blot analysis relative to control; type: cell-based
[4] = target: Protein cereblon/Peptidyl-prolyl cis-trans isomerase FKBP1A (Homo sapiens, UniProt P62942+Q96SW2); experiment: Proteolysis targeting chimera activity in human MV4-11 cells assessed as induction of cereblon-mediated delivery of FKBP12 for protein degradation by proteasome incubated for 18 hrs by immuno blot analysis; type: cell-based
[5] = target: T1, Protein cereblon/Bromodomain-containing protein 4; experiment: Proteolysis targeting chimera activity in human MV4-11 cells assessed as induction of cereblon-mediated delivery of BRD4 for protein degradation by proteasome at 100 nM incubated for 18 hrs by immuno blot analysis; type: cell-based
[6] = target: von Hippel-Lindau disease tumor suppressor/Bromodomain-containing protein 2 (Homo sapiens, UniProt P25440+P40337); experiment: Proteolysis targeting chimera activity in human 22Rv1 cells assessed as induction of VHL-mediated delivery of BRD2 for protein degradation by proteasome by measuring drug level causing 50% substrate depletion incubated for 16 hrs by Western blot method; type: cell-based
VCaP = experiment: Antitumor activity against human VCaP cells xenografted in SCID mouse assessed as tumor growth inhibition at 10 mg/kg, sc administered every 3 days for 16 days relative to control; type: functional; settings: read-out: TGI
[7] = target: von Hippel-Lindau disease tumor suppressor/Steroid hormone receptor ERR1 (Homo sapiens, UniProt P11474+P40337); experiment: Proteolysis targeting chimera activity in human MCF7 cells assessed as induction of VHL-mediated delivery of ERRalpha for protein degradation by proteasome by measuring drug level causing 50% substrate depletion incubated for 24 hrs by Western blot method; type: cell-based
Heart = experiment: In vivo induction of ERRalpha degradation in CD-1 mouse heart at 100 mg/kg, ip every 8 hrs measured 5 hrs post last dose by LC/MS analysis relative to control; type: functional
Kidney = experiment: In vivo induction of ERRalpha degradation in CD-1 mouse kidney at 100 mg/kg, ip every 8 hrs measured 5 hrs post last dose by LC/MS analysis relative to control; type: functional
MDA-MB-231 = experiment: In vivo induction of ERRalpha degradation in human MDA-MB-231 cells xenografted in […] mouse at 100 mg/kg, ip every 8 hrs measured 5 hrs post last dose by LC/MS analysis relative to control; type: functional

Protein cereblon/Tyrosine-protein kinase ABL1 (Homo sapiens), sequence (P00519 whole entry, looked up): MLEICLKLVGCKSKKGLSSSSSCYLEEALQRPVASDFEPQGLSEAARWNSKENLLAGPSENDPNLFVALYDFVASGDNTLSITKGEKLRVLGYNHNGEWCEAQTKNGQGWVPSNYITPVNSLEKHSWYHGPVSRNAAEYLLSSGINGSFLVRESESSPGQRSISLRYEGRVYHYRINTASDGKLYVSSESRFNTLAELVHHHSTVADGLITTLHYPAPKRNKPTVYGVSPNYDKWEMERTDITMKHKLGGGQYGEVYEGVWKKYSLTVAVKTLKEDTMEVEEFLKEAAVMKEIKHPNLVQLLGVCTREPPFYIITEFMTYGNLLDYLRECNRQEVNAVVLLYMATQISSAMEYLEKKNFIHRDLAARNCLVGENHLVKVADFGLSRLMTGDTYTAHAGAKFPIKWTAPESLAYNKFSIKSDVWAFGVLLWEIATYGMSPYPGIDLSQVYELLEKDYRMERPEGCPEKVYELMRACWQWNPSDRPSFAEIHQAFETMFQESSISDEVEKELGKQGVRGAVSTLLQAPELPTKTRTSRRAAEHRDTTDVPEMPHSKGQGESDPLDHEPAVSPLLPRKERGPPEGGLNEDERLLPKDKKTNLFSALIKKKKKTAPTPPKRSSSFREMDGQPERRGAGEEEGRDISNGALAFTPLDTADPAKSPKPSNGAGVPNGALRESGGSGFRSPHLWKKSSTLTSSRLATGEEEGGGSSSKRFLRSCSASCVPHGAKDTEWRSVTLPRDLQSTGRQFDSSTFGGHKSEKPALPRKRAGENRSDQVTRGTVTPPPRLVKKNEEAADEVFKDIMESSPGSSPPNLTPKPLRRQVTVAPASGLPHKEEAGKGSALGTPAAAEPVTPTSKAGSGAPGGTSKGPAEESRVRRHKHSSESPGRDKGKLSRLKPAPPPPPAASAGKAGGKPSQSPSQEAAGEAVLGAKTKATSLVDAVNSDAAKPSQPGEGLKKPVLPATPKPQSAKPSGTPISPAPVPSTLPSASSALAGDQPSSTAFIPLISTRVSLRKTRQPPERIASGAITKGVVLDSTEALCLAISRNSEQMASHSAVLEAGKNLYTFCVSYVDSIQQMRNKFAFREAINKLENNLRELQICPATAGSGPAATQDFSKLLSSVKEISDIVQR
Protein cereblon/Tyrosine-protein kinase ABL1 (Homo sapiens), sequence (Q96SW2 whole entry, looked up): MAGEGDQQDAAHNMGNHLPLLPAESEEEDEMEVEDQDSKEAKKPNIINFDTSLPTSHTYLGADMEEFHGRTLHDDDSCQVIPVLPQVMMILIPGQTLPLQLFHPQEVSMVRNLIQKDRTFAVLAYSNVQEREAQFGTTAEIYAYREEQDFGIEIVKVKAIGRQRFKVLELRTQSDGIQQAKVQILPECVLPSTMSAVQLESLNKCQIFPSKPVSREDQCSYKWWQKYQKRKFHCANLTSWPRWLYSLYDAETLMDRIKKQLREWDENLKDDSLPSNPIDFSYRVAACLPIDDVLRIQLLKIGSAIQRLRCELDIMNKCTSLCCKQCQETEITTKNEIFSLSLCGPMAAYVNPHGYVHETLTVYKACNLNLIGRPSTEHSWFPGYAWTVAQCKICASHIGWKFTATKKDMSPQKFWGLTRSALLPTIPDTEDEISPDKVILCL
Protein cereblon/Tyrosine-protein kinase ABL1/Breakpoint cluster region protein (Homo sapiens), sequence (P00519 whole entry, looked up): as the sequence (P00519 whole entry, looked up) above
Protein cereblon/Tyrosine-protein kinase ABL1/Breakpoint cluster region protein (Homo sapiens), sequence (P11274 whole entry, looked up): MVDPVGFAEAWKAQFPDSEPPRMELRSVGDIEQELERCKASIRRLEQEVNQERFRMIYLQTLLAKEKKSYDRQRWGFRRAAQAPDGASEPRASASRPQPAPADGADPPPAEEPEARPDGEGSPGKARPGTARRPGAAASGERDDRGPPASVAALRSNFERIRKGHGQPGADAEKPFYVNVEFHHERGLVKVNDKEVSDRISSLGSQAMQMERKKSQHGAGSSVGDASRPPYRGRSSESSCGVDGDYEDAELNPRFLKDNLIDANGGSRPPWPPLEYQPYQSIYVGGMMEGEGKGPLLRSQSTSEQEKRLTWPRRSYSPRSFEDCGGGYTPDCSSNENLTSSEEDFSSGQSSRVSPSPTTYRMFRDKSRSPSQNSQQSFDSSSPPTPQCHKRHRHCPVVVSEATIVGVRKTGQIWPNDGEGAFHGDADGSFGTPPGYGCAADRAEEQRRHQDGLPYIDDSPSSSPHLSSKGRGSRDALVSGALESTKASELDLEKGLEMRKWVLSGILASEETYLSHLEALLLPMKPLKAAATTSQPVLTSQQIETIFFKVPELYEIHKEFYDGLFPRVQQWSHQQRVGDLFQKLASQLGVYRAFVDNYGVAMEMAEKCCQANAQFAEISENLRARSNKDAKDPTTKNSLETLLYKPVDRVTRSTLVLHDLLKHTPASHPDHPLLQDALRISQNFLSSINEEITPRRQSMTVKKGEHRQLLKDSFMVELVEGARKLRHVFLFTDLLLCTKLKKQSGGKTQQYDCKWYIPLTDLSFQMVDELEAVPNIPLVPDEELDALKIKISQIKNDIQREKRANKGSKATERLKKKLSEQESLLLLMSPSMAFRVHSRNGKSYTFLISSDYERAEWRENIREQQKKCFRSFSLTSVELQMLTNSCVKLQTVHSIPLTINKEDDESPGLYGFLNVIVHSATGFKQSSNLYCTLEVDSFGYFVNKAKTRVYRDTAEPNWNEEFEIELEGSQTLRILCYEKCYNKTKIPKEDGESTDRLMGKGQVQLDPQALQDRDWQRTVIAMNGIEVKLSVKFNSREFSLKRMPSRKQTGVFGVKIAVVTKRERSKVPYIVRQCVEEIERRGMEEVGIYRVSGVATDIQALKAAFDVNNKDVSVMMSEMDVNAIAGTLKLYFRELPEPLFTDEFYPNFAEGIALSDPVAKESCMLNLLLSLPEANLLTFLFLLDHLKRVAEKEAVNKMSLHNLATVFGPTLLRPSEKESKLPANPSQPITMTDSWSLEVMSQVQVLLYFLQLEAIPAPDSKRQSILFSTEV
Protein cereblon/Tyrosine-protein kinase ABL1/Breakpoint cluster region protein (Homo sapiens), sequence (Q96SW2 whole entry, looked up): as the sequence (Q96SW2 whole entry, looked up) above
T1 sequence (Q96SW2 whole entry, looked up, other chains not shown): as the sequence (Q96SW2 whole entry, looked up) above

IC50 [1]: < 1 nM
SMILES: Cc1sc2c(c1C)C(c1ccc(Cl)cc1)=C[C@@H](CC(=O)Nc1ccc(OCCOCCOCCOCCNc3cccc4c3C(=O)N(C3CCC(=O)NC3=O)C4=O)cc1)c1nnc(C)n1-2 (stereo partly drawn)

Imax [2]: > 85%
Imax [3]: > 60%
SMILES: Cc1nc(Nc2ncc(C(=O)Nc3c(C)cccc3Cl)s2)cc(N2CCN(CCCCCCOCCOCCOCCCCCc3cccc4c3C(=O)N(C3CCC(=O)NC3=O)C4=O)CC2)n1 (stereo not drawn)

IC50 [4]: 10 nM
SMILES: CCC(C)(C)C(=O)C(=O)N1CCCC[C@H]1C(=O)O[C@H](CCc1ccc(OC)c(OC)c1)c1cccc(NC(=O)CCC(=O)NCCNC(=O)COc2cccc3c2C(=O)N(C2CCC(=O)NC2=O)C3=O)c1 (stereo partly drawn)

Imax [5]: > 85%
SMILES: Cc1sc2c(c1C)C(c1ccc(Cl)cc1)=C[C@@H](CC(=O)NCCCCNC(=O)COc1cccc3c1C(=O)N(C1CCC(=O)NC1=O)C3=O)c1nnc(C)n1-2 (stereo partly drawn)

IC50 [6]: < 5 nM
SMILES: Cc1ncsc1-c1ccc([C@H](C)NC(=O)[C@@H]2C[C@@H](O)CN2C(=O)[C@@H](NC(=O)COCCCOCCNC(=O)C[C@@H]2N=C(c3ccc(Cl)cc3)c3c(sc(C)c3C)-n3c(C)nnc32)C(C)(C)C)cc1
inhibition in vivo at 10 mg/kg (VCaP): 60%

IC50 [7]: 100 nM
SMILES: COc1cc(/C=C2\SC(=O)N(CCOCCC(=O)N[C@H](C(=O)N3C[C@H](O)C[C@H]3C(=O)NCc3ccc(-c4scnc4C)cc3)C(C)(C)C)C2=O)ccc1Oc1ccc(C#N)cc1C(F)(F)F
Activity (Heart): 40%
Activity (Kidney): 40%
Activity (MDA-MB-231): 40%

Imax [2]: 90%
Imax [3]: 80%
SMILES: COc1cc(Nc2c(C#N)cnc3cc(OCCCN4CCN(CCCCCCOCCOCCOCCCCCc5cccc6c5C(=O)N(C5CCC(=O)NC5=O)C6=O)CC4)c(OC)cc23)c(Cl)cc1Cl (stereo not drawn)
